Data taken from patent US6565897B2, “Extract of nerium species, pharmaceutical composition thereof and methods for preparation thereof” (Ozelle Pharmaceuticals, Inc., priority 1998, dated 2003).

Tested on: Tumor Necrosis Factor (TNF)
Assay: Tumor Necrosis Factor (TNF) production (immune stimulation)
Type: cell-based
Conditions: at a concentration of 50 mcg/mL
Description: For example, the polysaccharide PS-I is shown to produce 256 Unit/mL of Tumor Necrosis Factor (TNF) at a concentration of 50 mcg/mL while a mixture of PS-II, PS-III and PS-IV is shown to produce 1000 Unit/mL of TNF at a concentration of 3 mcg/mL.

## Poly α (1→4) D-Galacturonic Acid [PS-I]
  Tumor Necrosis Factor (TNF) produced: 256 Unit/mL
